Laboratory results: US12029793B2, “pH low insertion peptide targeted delivery of potent cytotoxic compounds” (University of Rhode Island Board of Trustees, priority 2019, dated 2024)
Side chains are listed from the residue outwards. Ends that are not written are not given here. * marks the point of attachment. mertansine = COc1cc2cc(c1Cl)N(C)C(=O)C[C@H](OC(=O)[C@H](C)N(C)C(=O)CCS*)[C@]1(C)O[C@H]1[C@H](C)[C@@H]1C[C@@](O)(NC(=O)O1)[C@H](OC)/C=C/C=C(\C)C2; SPDP = linker on the drug for disulfide conjugation to Cys

Assays:
[1] = test system: panel of urinary bladder cancer cell lines; assay: Cell viability on panel of urinary bladder cancer cell lines (summary statements); assay type: cell-based; conditions: amanitin alone, two hours, concentrations up to 2 μM
Description: The cytotoxic and highly polar agents, like amanitin, may be especially effective in topical applications.
Cancer cells were loaded in the wells of 96-well plates (5,000 cells/well) and incubated overnight. The standard growth medium was replaced with medium without FBS, at pH 6.0 or 7.4, containing increasing amounts of pHLIP-S-S-amanitin (from 0 to 2.0 μM). The pH 6.0 medium was prepared by mixing 13.3 g of dry DMEM in 1 L of deionized water. After two-hour incubation with the pHLIP-S-S-amanitin, the construct was removed and replaced with standard growth medium. […] Cell viability was assessed after 48 hours using the colorimetric CellTiter 96 AQueous One Solution Cell Proliferation Assay by absorption measurement at 490 nm (FIG. 20B presents an example of the data obtained on SCaBER squamous cell carcinoma).
There was no difference in the viability of cells incubated with media, without construct, at pH 7.4 and pH 6.0; therefore, the role of pH was excluded from the consideration. Therapeutic index (TI) was calculated according to the equation: […]
Table 8 below contains EC50 values obtained for the treatment at pH 7.4 and pH 6.0 and calculated therapeutic index, which clearly indicated a pH-dependent cell action of pHLIP-S-S-amanitin. […]

[2] = test system: HeLa human cervical tumors; assay: Tumor weight after IP treatment with pHLIP-S-S-calicheamicin; assay type: in vivo, female athymic nude mice; conditions: multiple IP injections once in 3-4 days, total ~1.5 mg/kg, vs non-treated control
Description: FIG. 21C depicts box plot presenting mean (filled squares), median, 25 and 75 percentiles (box) and standard deviation values of tumor weights after IP and IT treatment with pHLIP-S-S-calicheamicin compared to the control (non-treated) group. P-level was calculated using two-tailed test.
Calicheamicin modified with SPDP was synthesized and purified by Cfm, GmbH (FIG. 21A). Calicheamicin-SPDP was used to conjugate with Cys residue of pHLIP® peptide's membrane-inserting end to obtain pHLIP-S-S-calicheamicin. The pHLIP® peptide used in the study: […] (SEQ ID NO: 3) was prepared by solid-phase synthesis. Purification of the pHLIP-S-S-calicheamicin was conducted using RP-HPLC (the gradient: 10 mM TEAA buffer and acetonitrile), followed by lyophilization. The construct purity and identity was established by analytical RP-HPLC and surface-enhanced laser desorption/ionization time of flight (SELDI-TOF) mass spectroscopy, respectively. Construct concentration was calculated by absorbance at 280 nm for pHLIP® peptide with correction on absorbance of calicheamicin. pHLIP-S-S-calicheamicin dissolved in PBS was given as multiple intraperitoneal (IP) or intratumoral (IT) injections (once in 3-4 days) into mice bearing HeLa human cervical tumors in flank of female athymic nude mice.
The total combined dose of the multiple IP injections of pHLIP-S-S-calicheamicin was ˜1.5 mg/kg. […]

[3] = test system: HeLa human cervical tumors; assay: Tumor weight after treatment with pHLIP-S-S-exatecan; assay type: in vivo, female athymic nude mice
[4] = test system: MDA-MB-231 human triple negative breast or HeLa human cervical tumors; assay: Tumor weight after IP or IT treatment with pHLIP-S-S-mertansine; assay type: in vivo, female athymic nude mice; conditions: for tumor weight reduction: vs non-treated control
Description: FIG. 19C depicts a box plot presenting mean (filled square), median, 25 and 75 percentiles (box itself) and standard deviation values of the tumor weights collected after IP and IT treatment with pHLIP-S-S-mertansine compared to the control (non-treated) group. P-level was calculated using two-tailed test.
pHLIP-S-S-mertansine dissolved in PBS and was given as multiple intraperitoneal (IP) or intratumoral (IT) injections (once in 3-4 days) into mice bearing MDA-MB-231 human triple negative breast or HeLa human cervical tumors in flanks of female athymic nude mice. The total combined dose of the multiple IP injections of pHLIP-S-S-mertansine was […], and the total combined dose of the multiple IT injections of pHLIP-S-S-mertansine was ˜2.5 mg/kg. When the tumor reached a size of about 1 cm^3 (about 1 g) in the control (non-treated) group, the animals were sacrificed; tumors were collected (FIG. 19B) and weighted (FIG. 19C).
In a separate experiment, IT injections were performed, tumors disappeared and mice were left for several weeks.

CC[C@H](C)[C@@H]1NC(=O)CNC(=O)[C@@H]2Cc3c([nH]c4cc(O)ccc34)[S@+]([O-])C[C@H](NC(=O)CNC1=O)C(=O)N[C@@H](CC(N)=O)C(=O)N1C[C@H](O)C[C@H]1C(=O)N[C@@H]([C@@H](C)[C@@H](O)CO)C(=O)N2 [amanitin, alpha-amanitin]
induction of cell death [1]: did not induce cell death

pHLIP-S-S-calicheamicin: Calicheamicin-SPDP conjugated with Cys residue of membrane-inserting end of pHLIP peptide ADDQNPWRAYLDLLFPTDTLLLDLLWCA (SEQ ID NO: 3) (ADDQNPWRAYLDLLFPTDTLLLDLLWC([SPDP-calicheamicin])A)
tumor weight reduction [2]: About 88%

pHLIP-S-S-exatecan: Exatecan-SPDP conjugated with single Cys residue of membrane-inserting end of pHLIP peptide ADDQNPWRAYLDLLFPTDTLLLDLLWCA (SEQ ID NO: 3) (ADDQNPWRAYLDLLFPTDTLLLDLLWC([SPDP-exatecan])A)
tumor weight reduction ([3]; IP administration, multiple injections once in 3-4 days, vs non-treated control): 50-60%
tumor weight reduction ([3]; IT administration): more than 70%

pHLIP-S-S-mertansine: Mertansine (DM1) conjugated to membrane-inserting end of pHLIP peptide ADDQNPWRAYLDLLFPTDTLLLDLLWCA (SEQ ID NO: 3) via cleavable S-S link (ADDQNPWRAYLDLLFPTDTLLLDLLWC(mertansine)A)
tumor disappearance ([4]; after IT administration, in some cases): tumor disappeared
signs of toxicity ([4]; in the course of IP or IT treatment): no signs of toxicity
tumor weight reduction ([4]; multiple IP injections once in 3-4 days, total combined dose −10 mg/kg): About 60%
tumor weight reduction ([4]; multiple IT injections once in 3-4 days, total combined dose ~2.5 mg/kg): more than 90%
cases with no tumor re-growth ([4]; separate experiment, IT injections, tumors disappeared, mice left for several weeks): 60%
